The record followed here is PMC5344539, “Nematode neuropeptides as transgenic nematicides” (PLoS Pathogens, 2017).

“Also recorded” adds a separate entry of the source.

Assay [1] relates to M. incognita J2s. Description: Serotonin-induced stylet thrusting assay. It counts as in vivo, Meloidogyne incognita. The conditions noted are these: for effect on serotonergic-induced stylet thrusting (in words): 100 μM uNLP, 24 h, 5 mM serotonin, relative to controls; for % Thrusting: Fig 1C, J2s incubated in 100 μM uNLP for 24 h, stylet thrusts in 5 mM serotonin, counted 1 min, normalised to control = 100%, mean, at least 30 J2s. As for the experimental part:
(§1) Predicted uNLPs from both M. incognita and G. pallida were synthesised by EZBiolab and dissolved into pH adjusted ddH2O to make a 5 mM stock which was aliquoted and stored at -20°C. J2s of both M. incognita and G. pallida were incubated for 24 hours in 200 μl of each peptide in a 24 well plate (SPL Lifesciences, South Korea) at a defined concentration.
(§2) Stylet thrusting assays where performed by incubating 100 M. incognita or G. pallida J2s for 15 minute in 5 mM or 2 mM serotonin (Sigma Aldrich, USA), respectively. J2s were placed on a glass slide and stylet thrusts were counted for randomly selected J2s, for 1 minute each. Counts for a given cohort of J2s were taken in a maximum interval of 15 minutes. Longer counting intervals, making for longer serotonin incubations, yielded inconsistent results. At least 30 J2s were counted for each neuropeptide treatment.

Assay [2] relates to M. incognita J2s. Description: Chemosensory (chemotaxis) assay of uNLP pre-treated J2s towards tomato root exudate. It counts as in vivo, Meloidogyne incognita. The settings on record: for effect on chemosensation (in words): 100 μM uNLP, 24 h, relative to controls; for CI score: Fig 1A, J2s incubated in 100 μM uNLP for 24 h, tomato cv. Moneymaker root exudate vs water agar plugs, counted after 3 h, mean of 10 replicates of 100 J2s, control 0.4426. As for the experimental part:
as §1
(§3) A 60 mm Petri dish was divided into two segments, a positive and a negative side, with a 0.5 cm 'dead zone' either side of the centre point. The petri dish was filled with 15 ml of 0.25% w/v agar which was allowed to solidify. 3 ml of 0.25% w/v agar slurry in spring water (pH 7, agitated with a magnetic stirrer for several hours to give a smooth consistency) was added to the petri dish and spread evenly over the surface. Root diffusate (attractant) and water only (control) 0.25% agar plugs were embedded in the agar slurry, either side of the assay arena. Root diffusate was collected from 10 tomato plants, aged 3–6 weeks in 1 litre pots, by pouring 500 ml of ddH20 through the soil three times. Diffusate from each plant was combined, filter sterilised and stored at 4°C for a maximum of 1 month. Root diffusate agar plugs were made by melting 1.25% agar in ddH20, cooling to 50°C before mixing with 4 parts of root diffusate. The agar was then allowed to solidify at room temperature. 100 uNLP pre-treated M. incognita or G. pallida J2s were added by pipette to the centre of the plate. J2s which moved out of the 'dead zone' after 3 hours were counted and their location (+/-) scored. The distribution of J2s were used to create a chemotaxis index for each plate, which formed one replicate, a total of 10 replicates where completed for each uNLP treatment.

In assay [3] the test system is M. incognita J2s. Description: Tomato invasion assay with uNLP pre-treated J2s. The conditions noted are these: for effect on host invasion (in words): 100 μM uNLP, 24 h, tomato cv. Moneymaker, relative to controls; for % Invasion: Fig 1B, 500 J2s incubated in 100 μM uNLP for 24 h, single tomato seedling, 24 h at 23°C, normalised to negative control = 100%, mean. Format: in vivo, Meloidogyne incognita. As for the experimental part:
as §1
Tomato seeds were sterilised with 2.5% NaOCl for 15 minutes, washed 5 times in ddH20 and germinated on 0.5% Murashige and Skoog plates at 23°C. […] Invasion assays were performed by mixing 500 pre-treated M. incognita or G. pallida J2s with agar slurry and a single tomato seedling (2 days post germination) in a 6 well plate. Assays were left at 23°C for 24 hours in the case of M. incognita and at 18°C for 24 hours in the case of G. pallida under a 16 hour light and 8 hour darkness cycle. Seedlings were stained using acid fuschin [69] and the number of nematodes within the roots counted. At least five seedlings were used for M. incognita infections assays, with at least 15 seedlings used for G. pallida infections assays (due to increased variation).

Assay [4] deals with G. pallida J2s. Description: Chemosensory (chemotaxis) assay of uNLP pre-treated J2s towards tomato root exudate. It counts as in vivo, Globodera pallida. The conditions noted are these: for CI score: Fig 2A, J2s incubated in 100 μM uNLP for 24 h, tomato cv. Moneymaker root exudate vs water agar plugs, counted after 3 h, mean of 10 replicates of 100 J2s, control 0.4154; for effect on chemosensation (in words): 100 μM uNLP, 24 h, relative to controls. As to the method:
as §1, §3

Assay [5] has as its system G. pallida J2s. Description: Serotonin-induced stylet thrusting assay. Format: in vivo, Globodera pallida. The conditions noted are these: for effect on serotonergic-induced stylet thrusting (in words): 100 μM uNLP, 24 h, 2 mM serotonin, relative to controls; for % Thrusting: Fig 2C, J2s incubated in 100 μM uNLP for 24 h, stylet thrusts in 2 mM serotonin, counted 1 min, normalised to control = 100%, mean, at least 30 J2s. As to the method: as §1, §2

Take “AAENFDENNDIN [Mi-NLP-18d, predicted unamidated NLP of M. incognita, synthesised]”: in the assay with M. incognita J2s [1], the “effect on serotonergic-induced stylet thrusting (in words)” value was “agonise serotonergic stylet thrusting” and the “% Thrusting” value was 147.70%. Besides, in the assay on M. incognita J2s [2], the “effect on chemosensation (in words)” value is “no negative impact on J2 chemosensory ability”. Besides, in the assay with M. incognita J2s [3], the “effect on host invasion (in words)” value is recorded as “reduce host invasion rates” and the “% Invasion” value was 34.21%.

Regarding “AFDLFTGPGFTGMD [Gp-NLP-15h, predicted unamidated NLP of G. pallida, synthesised]”, in the assay with G. pallida J2s [4], the CI score is -0.06784.

“AFDRLDNSFMLL [Mi-NLP-8d, predicted unamidated NLP of M. incognita, synthesised]”: in the assay on M. incognita J2s [3], the “% Invasion” value is 29.31%.

As to “AFDRLDVSPFDFDAMT [Mi-NLP-8a, predicted unamidated NLP of M. incognita, synthesised]”, in the assay on M. incognita J2s [1], the “% Thrusting” value worked out at 126.10%. Further, the CI score in the assay with M. incognita J2s [2] stood at 0.018.

As to “AFDSFAGNGFTGFD [Mi-NLP-15f, predicted unamidated NLP of M. incognita, synthesised]”, in the assay on M. incognita J2s [1], the “effect on serotonergic-induced stylet thrusting (in words)” value is reported as “reduces stylet thrusting rate” and the “% Thrusting” value is listed as 75.18%. Besides, in the assay on M. incognita J2s [2], the “effect on chemosensation (in words)” value was “inhibit chemosensation” and the CI score is listed as -0.05. Moreover, in the assay on M. incognita J2s [3], the “effect on host invasion (in words)” value is listed as “does not impact on host invasion”.

Take “AFDSFGTPGFTGFD [Mi-NLP-15a, predicted unamidated NLP of M. incognita, synthesised]”: in the assay on M. incognita J2s [2], the “effect on chemosensation (in words)” value is “inhibit chemosensation” and the CI score is recorded as -0.01067.

“AFDSFTGPGFTGMD [Gp-NLP-15g, predicted unamidated NLP of G. pallida, synthesised]”: the CI score in the assay on G. pallida J2s [4] is recorded as -0.2208.

As for “AGARAFQRPDFDDASYEL [Mi-NLP-9a, predicted unamidated NLP of M. incognita, synthesised]”, the “% Invasion” value in the assay with M. incognita J2s [3] is on record as 45.59%.

On to “AGGRLFRMVDLPDGDDFVPEG [Gp-NLP-21e, predicted unamidated NLP of G. pallida, synthesised]”, for which the CI score in the assay with G. pallida J2s [4] is listed as -0.3804.

As to “ALDILDGDDFTGFS [Gp-NLP-14e, predicted unamidated NLP of G. pallida, synthesised]”, the CI score with G. pallida J2s [4] is -0.0641.

Regarding “ALDILESDDFGGF [Gp-NLP-14a, predicted unamidated NLP of G. pallida, synthesised]”, in the assay on G. pallida J2s [4], the CI score is -0.3765.

In the case of “ALDLMEGDGFGGGFD [Mi-NLP-14b, predicted unamidated NLP of M. incognita, synthesised]”, the CI score in the assay on M. incognita J2s [2] is listed as -0.1155.

For the sequence “ALDMLEGDDFIGMQ [Mi-NLP-14a, predicted unamidated NLP of M. incognita, synthesised]”, in the assay on M. incognita J2s [1], the “effect on serotonergic-induced stylet thrusting (in words)” value is on record as “inhibition; also recorded: reduces stylet thrusting rate” and the “% Thrusting” value was 61.60%. In the assay with M. incognita J2s [3], the “effect on host invasion (in words)” value is recorded as “does inhibit host invasion” and the “% Invasion” value amounted to 44.61%.

For the sequence “ALDMMEGDDFIGL [Mi-NLP-14c, predicted unamidated NLP of M. incognita, synthesised]”, in the assay on M. incognita J2s [1], the “effect on serotonergic-induced stylet thrusting (in words)” value is reported as “excitation; also recorded: agonise serotonergic stylet thrusting” and the “% Thrusting” value turned out to be 134.70%. Moreover, the “effect on chemosensation (in words)” value with M. incognita J2s [2] is listed as “no negative impact on J2 chemosensory ability”. Further, in the assay with M. incognita J2s [3], the “effect on host invasion (in words)” value is “reduce host invasion rates” and the “% Invasion” value was determined as 20.96%.

As to “FAPRQFAFA [Mi-NLP-18a, predicted unamidated NLP of M. incognita, synthesised]”, in the assay with M. incognita J2s [2], the “effect on chemosensation (in words)” value is recorded as “inhibited” and the CI score is listed as -0.1353. Moreover, in the assay on M. incognita J2s [3], the “effect on host invasion (in words)” value is “inhibited” and the “% Invasion” value was determined as 25.88%.

In the case of “FNDDELSSLPFNFEYFPSLDTH [Mi-NLP-8b, predicted unamidated NLP of M. incognita, synthesised]”, in the assay on M. incognita J2s [3], the “% Invasion” value is 61.38%.

Consider “GGARAFAKLEE [Mi-NLP-9c, predicted unamidated NLP of M. incognita, synthesised]”, for which the “% Thrusting” value with M. incognita J2s [1] stood at 143.20%.

In the case of “GGARAFFGDADGPFNSASYWAP [Gp-NLP-21h, predicted unamidated NLP of G. pallida, synthesised]”, in the assay with G. pallida J2s [4], the “effect on chemosensation (in words)” value is “inhibit chemosensation” and the CI score is -0.01564. For the same sequence, in the assay on G. pallida J2s [5], the “effect on serotonergic-induced stylet thrusting (in words)” value was “modulating stylet thrusting rates” and the “% Thrusting” value worked out at 116.80%.

Take “GGARAFNGAEETLLNVANLA [Gp-NLP-21i, predicted unamidated NLP of G. pallida, synthesised]”: in the assay with G. pallida J2s [4], the “effect on chemosensation (in words)” value is “inhibit chemosensation” and the CI score is -0.1733. Further, in the assay on G. pallida J2s [5], the “effect on serotonergic-induced stylet thrusting (in words)” value is given as “modulating stylet thrusting rates” and the “% Thrusting” value is reported as 117.70%.

In the case of “GGARPFYGFFGGGEGTW [Mi-NLP-9e, predicted unamidated NLP of M. incognita, synthesised]”, the “% Invasion” value in the assay on M. incognita J2s [3] was 48.68%.

“GGARPFYGGGYMDGTW [Gp-NLP-21f, predicted unamidated NLP of G. pallida, synthesised]”: in the assay on G. pallida J2s [4], the CI score is listed as 0.1456.

Take “GGARTFLVGE [Mi-NLP-9b, predicted unamidated NLP of M. incognita, synthesised]”: in the assay on M. incognita J2s [2], the “effect on chemosensation (in words)” value is listed as “inhibit chemosensation” and the CI score is -0.07417.

For the sequence “GMRNFAFA [Mi-NLP-18b, predicted unamidated NLP of M. incognita, synthesised]”, in the assay with M. incognita J2s [1], the “effect on serotonergic-induced stylet thrusting (in words)” value is on record as “agonise serotonergic stylet thrusting” and the “% Thrusting” value stood at 146.60%. In the assay on M. incognita J2s [2], the “effect on chemosensation (in words)” value is recorded as “no negative impact on J2 chemosensory ability”. Also, in the assay with M. incognita J2s [3], the “effect on host invasion (in words)” value is on record as “reduce host invasion rates” and the “% Invasion” value is given as 47.81%.

Take “SAFDSFVGRGFTGMD [Mi-NLP-15e, predicted unamidated NLP of M. incognita, synthesised]”: in the assay with M. incognita J2s [2], the “effect on chemosensation (in words)” value is listed as “inhibit chemosensation” and the CI score is -0.01767. For the same sequence, in the assay on M. incognita J2s [3], the “% Invasion” value turned out to be 38.71%.

On to “SFDSFVGKGFTGMD [Mi-NLP-15c, predicted unamidated NLP of M. incognita, synthesised]”, for which, in the assay on M. incognita J2s [2], the “effect on chemosensation (in words)” value is “inhibit chemosensation” and the CI score was -0.359.

“SFDSLTGPGFTGLDT [Gp-NLP-15a, predicted unamidated NLP of G. pallida, synthesised]”: the CI score in the assay on G. pallida J2s [4] is listed as -0.1451.

“SFGDYPFGSRTFAFA [Mi-NLP-18c, predicted unamidated NLP of M. incognita, synthesised]”: in the assay on M. incognita J2s [1], the “% Thrusting” value is recorded as 175.50%.

As for “SSLASGRIGFRPA [Mi-NLP-2, predicted unamidated NLP of M. incognita, synthesised]”, in the assay with M. incognita J2s [1], the “% Thrusting” value worked out at 164.40%.

In the case of “SSQFGGENSFARFAFA [Mi-NLP-18e, predicted unamidated NLP of M. incognita, synthesised]”, in the assay on M. incognita J2s [3], the “% Invasion” value came out at 46.49%.
